According to US12486268B2 (TRANSNEURAL THERAPEUTICS, INC., priority 2022, dated 2025):
pEC50: −log10 of the molar value. Counter-ions that a name gives are not always drawn.

Molecular target: T1, human serotonin 2A receptors (5-HT2AR) (Homo sapiens, UniProt P28223)
T1 construct: expressed in transfected cells; host or cells: HEK 293 cells
Assay: IP1 accumulation assay (HTRF)
Format: cell-based
Parameters: key to h5-HT2A EC50: A=<100; B=100 to 1000; C=>1000 to 10000; D=>10000; E=inactive
Details: HEK 293 cells expressing human 5-HT2AR; for Emax: HEK293, IP1 production, relative to 5-HT, read-out: h5-HT2A Emax; for h5-HT2A EC50 / pEC50: IP1 production (proxy for Gq activation); for pEC50: read-out: h5-HT2A EC50
Protocol: The functional activity of disclosed compounds is measured using an IP1 (inositol monophosphate) accumulation assay. The effects of disclosed compounds on IP1 production (a proxy for Gq activation) was measured in HEK 293 cells expressing human serotonin 2A receptors (5-HT2AR) using a Homogeneous Time Resolved Fluorescence (HTRF) assay. Standard protocols are followed. Briefly, a cell suspension and test compound/s is incubated in a standard buffer. Following incubation, the cells are lysed, and the fluorescence acceptor and donor are added. After incubation the fluorescence transfer is measured, and data is analyzed using GraphPad Prism to generate concentration response curves.

T1 sequence (P28223 whole entry): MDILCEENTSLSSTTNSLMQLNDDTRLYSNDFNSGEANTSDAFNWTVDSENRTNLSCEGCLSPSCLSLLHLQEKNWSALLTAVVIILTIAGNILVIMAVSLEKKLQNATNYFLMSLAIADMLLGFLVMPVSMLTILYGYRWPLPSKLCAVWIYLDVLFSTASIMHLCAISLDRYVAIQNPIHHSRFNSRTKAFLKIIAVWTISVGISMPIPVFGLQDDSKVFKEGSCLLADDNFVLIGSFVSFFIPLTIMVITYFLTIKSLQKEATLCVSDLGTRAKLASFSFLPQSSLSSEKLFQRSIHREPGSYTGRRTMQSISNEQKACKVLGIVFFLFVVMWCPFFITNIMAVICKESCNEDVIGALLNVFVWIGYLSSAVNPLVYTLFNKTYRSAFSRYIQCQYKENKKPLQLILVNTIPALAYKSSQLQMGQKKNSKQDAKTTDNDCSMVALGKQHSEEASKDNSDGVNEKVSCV

Row | SMILES | Emax [%] | h5-HT2A EC50 | pEC50
1 | CC1C=C(c2c[nH]c3ncccc23)CN(CC(C)(F)F)C1 (single isomer, unassigned) [103 Isomer 1] | < 50 | E | –
2 | CC1C=C(c2c[nH]c3ncccc23)CN(CC(C)(F)F)C1 (single isomer, unassigned) [103 Isomer 2] | – | E | –
3 | CC1C=C(c2c[nH]c3ncccc23)CN(CC(F)(F)C(F)(F)F)C1 (single isomer, unassigned) [105 Isomer 1] | – | E | –
4 | CC1C=C(c2c[nH]c3ncccc23)CN(CC(F)(F)C(F)(F)F)C1 (single isomer, unassigned) [105 Isomer 2] | < 50 | E | –
5 | FC(F)(F)C1C=C(c2c[nH]c3ncccc23)CNC1 (stereo not drawn) [Compound 101, 3-(5-(trifluoromethyl)-1,2,5,6-tetrahydropyridin-3-yl)-1H-pyrrolo[2,3-b]pyridine] | 75 to 90 | – | 5.00 to 6.00
6 | CN1CC(c2c[nH]c3ncccc23)=CC(C(F)(F)F)C1 (stereo not drawn) [Compound 102, 3-(1-methyl-5-(trifluoromethyl)-1,2,5,6-tetrahydropyridin-3-yl)-1H-pyrrolo[2,3-b]pyridine] | – | – | < 5.00
7 | CN1CCC2CC2(c2c[nH]c3ncccc23)C1 (stereo not drawn) [Compound 106, 3-(3-methyl-3-azabicyclo[4.1.0]heptan-1-yl)-1H-pyrrolo[2,3-b]pyridine] | – | – | < 5.00
8 | CC1(C)C=C(c2c[nH]c3ncccc23)CNC1 [Compound 107, 3-(5,5-dimethyl-1,2,5,6-tetrahydropyridin-3-yl)-1H-pyrrolo[2,3-b]pyridine hydrochloride] | – | – | < 5.00
9 | CN1CC(c2c[nH]c3ncccc23)=CC(C)(C)C1 [Compound 108, 3-(1,5,5-trimethyl-1,2,5,6-tetrahydropyridin-3-yl)-1H-pyrrolo[2,3-b]pyridine hydrochloride] | – | – | < 5.00
10 | N#CC1C=C(c2c[nH]c3ncccc23)CNC1 (stereo not drawn) [Compound 132, 5-(1H-pyrrolo[2,3-b]pyridin-3-yl)-1,2,3,6-tetrahydropyridine-3-carbonitrile] | – | – | < 5.00
11 | C1=C(c2c[nH]c3ncccc23)C2CC1CN2 (stereo not drawn) [Compound 134] | < 50 | E | –
12 | CN1C2CC=C(c3c[nH]c4ncccc34)C1CC2 (stereo not drawn) [Compound 141, 3-(8-methyl-8-azabicyclo[3.2.1]oct-2-en-2-yl)-1H-pyrrolo[2,3-b]pyridine] | – | – | < 5.00
13 | CCN1CC(c2c[nH]c3ncccc23)=CC2(CC2)C1 [Compound 144, 3-(5-ethyl-5-azaspiro[2.5]oct-7-en-7-yl)-1H-pyrrolo[2,3-b]pyridine] | 75 to 90 | – | 5.00 to 6.00
14 | C1=C(c2c[nH]c3ncccc23)CNCC12CCC2 [Compound 145, 3-(6-azaspiro[3.5]non-8-en-8-yl)-1H-pyrrolo[2,3-b]pyridine] | < 50 | – | 5.00 to 6.00
15 | CN1CC(c2c[nH]c3ncccc23)=CC2(CCC2)C1 [Compound 146, 3-(6-methyl-6-azaspiro[3.5]non-8-en-8-yl)-1H-pyrrolo[2,3-b]pyridine dihydrochloride] | 50 to 75 | – | 6.00 to 7.00
16 | C1=C(c2c[nH]c3ncccc23)C2(CC2)NCC1 [Compound 147, 3-(4-azaspiro[2.5]oct-7-en-8-yl)-1H-pyrrolo[2,3-b]pyridine hydrochloride] | > 90 | – | 5.00 to 6.00
17 | CC1(C)CC=C(c2c[nH]c3ncccc23)CN1 [Compound 148, 3-(6,6-dimethyl-1,2,5,6-tetrahydropyridin-3-yl)-1H-pyrrolo[2,3-b]pyridine hydrochloride] | < 50 | E | –
18 | CC1(C)NCCC=C1c1c[nH]c2ncccc12 [Compound 149, 3-(2,2-dimethyl-1,2,5,6-tetrahydropyridin-3-yl)-1H-pyrrolo[2,3-b]pyridine] | < 50 | E | –
19 | C1=C(c2nsc3ccccc23)CNCC1 [Compound 160, 3-(1,2,5,6-tetrahydropyridin-3-yl)benzo[d]isothiazole] | > 90 | – | > 7.00
